Results: paper PMC10144301, “Antiseizure Properties of Histamine H3 Receptor Antagonists Belonging 3,4-Dihydroquinolin-2(1H)-Ones” (Molecules, 2023)
Values joined by “and” are separate entries in the source; they are usually repeats but may differ in a detail not shown here. Equal entries are not always repeated. “Also recorded” adds a separate entry of the source. Blank lines part the entries; values can stand above or below the compound they belong to.

What was measured:
H3R = H3R (Homo sapiens, UniProt Q9Y5N1); experiment: CRE luciferase reporter assay for H3R antagonistic activity; assay type: cell-based
Chain of H3R (Q9Y5N1 whole entry, species assumed): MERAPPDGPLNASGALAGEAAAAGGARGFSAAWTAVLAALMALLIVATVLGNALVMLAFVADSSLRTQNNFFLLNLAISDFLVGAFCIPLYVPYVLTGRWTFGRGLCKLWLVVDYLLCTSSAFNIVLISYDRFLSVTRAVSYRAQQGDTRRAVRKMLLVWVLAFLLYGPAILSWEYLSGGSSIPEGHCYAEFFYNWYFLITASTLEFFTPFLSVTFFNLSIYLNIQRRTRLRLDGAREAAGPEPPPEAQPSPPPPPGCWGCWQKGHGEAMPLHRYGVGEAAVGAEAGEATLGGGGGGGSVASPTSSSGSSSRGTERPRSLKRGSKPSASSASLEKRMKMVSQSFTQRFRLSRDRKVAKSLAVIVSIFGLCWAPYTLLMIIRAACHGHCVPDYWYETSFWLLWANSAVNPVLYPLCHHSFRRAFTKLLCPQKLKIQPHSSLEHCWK
Description: Firstly, all the target compounds were screened at 5 μM and 50 μM. […] The detailed experimental operations refer to the previous paper.

[1] = tested on: maximal electroshock seizure (MES) model; experiment: Maximal electroshock seizure (MES) model; assay type: in vivo; details: mice; for Duration of tonic hind limb extension (THLE), protection in MES model: i.p., compared to control group; for Protection in MES model at lowest dosage: 3 mg/kg, compared to control (saline); for Dose dependence of protection in MES model: doses of 3, 10 and 30 mg/kg
Description: One of the two test models is the MES seizure model, another is the PTZ-induced seizure model. […] In addition, the administration of this dosage can minimize the impact of other possible side effects such as central inhibition and cardiac toxicity. […] In addition, the tested dose of VPA was 300 mg/kg. It could be seen that all animals in the control group experienced hindlimb stiffness after the electrical stimulation in the MES model. In the treated group, the definition of protection was the reduction or vanishing of the tonic hind limb extension (THLE) in mice. […] The neurological safety of the compounds 2h, 4a, and 4b was evaluated by the rotarod test. In the MES test, the definition of protection was the reduction or vanishing of the THLE in mice. In the PTZ test, the seizures were induced through the subcutaneous administration of PTZ (85 mg/kg). The antiseizure activities of the compounds in the PTZ test were evaluated by comparing the convulsion scores in mice between taking the compounds or not. VPA and PIT were used as positive drugs. To explore the anticonvulsive mechanism, compound 4a (10 mg/kg) was co-injected with RAMH (10 mg/kg). In addition, the THLE was recorded and compared with that of the mice treated by compound 4a alone. The detailed experimental operations in the MES, PTZ, and rotarod tests refer to our previous paper. All the animal experiments were carried out on 4-week-old KunMing male mice weighing from 20 to 25 g. The mice were housed collectively in polycarbonate cages in groups of 30, where they were maintained on a 12 h light/dark cycle in a temperature controlled (25 ± 2 °C) laboratory with free access to food and water. In the MES and PTZ models, seven animals were used in each group. In the rotarod test, three animals were used in each group. Each animal was used only once. All the experiments referring to animals were applied according to the Guide for the Care and Use of Laboratory Animals and were approved by the Medical Ethics Committee of Jinggangshan University, approval number: 220811002.

[2] = Rotarod test for neurotoxicity; assay type: in vivo; details: mice; for Death of treated animals: 300 mg/kg; for Neurotoxicity: rotarod test, i.p., three animals per group
Description: A rotarod test was carried out to estimate the neurological safety of compounds 2h, 4a, and 4b.
The neurological safety of the compounds 2h, 4a, and 4b was evaluated by the rotarod test. In the MES test, the definition of protection was the reduction or vanishing of the THLE in mice. In the PTZ test, the seizures were induced through the subcutaneous administration of PTZ (85 mg/kg). The antiseizure activities of the compounds in the PTZ test were evaluated by comparing the convulsion scores in mice between taking the compounds or not. VPA and PIT were used as positive drugs. To explore the anticonvulsive mechanism, compound 4a (10 mg/kg) was co-injected with RAMH (10 mg/kg). In addition, the THLE was recorded and compared with that of the mice treated by compound 4a alone. The detailed experimental operations in the MES, PTZ, and rotarod tests refer to our previous paper. All the animal experiments were carried out on 4-week-old KunMing male mice weighing from 20 to 25 g. The mice were housed collectively in polycarbonate cages in groups of 30, where they were maintained on a 12 h light/dark cycle in a temperature controlled (25 ± 2 °C) laboratory with free access to food and water. In the MES and PTZ models, seven animals were used in each group. In the rotarod test, three animals were used in each group. Each animal was used only once. All the experiments referring to animals were applied according to the Guide for the Care and Use of Laboratory Animals and were approved by the Medical Ethics Committee of Jinggangshan University, approval number: 220811002.

[3] = tested on: maximal electroshock seizure (MES) model; set-up: method as in PMID 33325568; details: administrated combined with H3R agonist RAMH; cited from earlier work
[4] = tested on: PTZ-induced seizure model; experiment: Pentylenetetrazole (PTZ)-induced seizure model; assay type: in vivo; details: mice, 300 mg/kg, i.p.; PTZ 85 mg/kg s.c.
Description: One of the two test models is the MES seizure model, another is the PTZ-induced seizure model. […] In addition, the administration of this dosage can minimize the impact of other possible side effects such as central inhibition and cardiac toxicity. […] In addition, the tested dose of VPA was 300 mg/kg. The PTZ model was usually used to screen the antiepileptic candidates for the absence of seizures. In this work, compounds 2a-2i, 3a-3c, and 4a-4b were also evaluated for their antiseizure action in the PTZ model in mice, while using VPA as the positive drug. […] The failure of synthesized compounds in the PTZ model is expected because our previously reported H3R inhibitors were also ineffective in the PTZ model. […] A considerable increase in histamine levels was found in the brain after MES-induced seizures, whereas a tendency toward a decrease in histamine levels was observed after PTZ-kindled convulsions. […] The neurological safety of the compounds 2h, 4a, and 4b was evaluated by the rotarod test. In the MES test, the definition of protection was the reduction or vanishing of the THLE in mice. […] The antiseizure activities of the compounds in the PTZ test were evaluated by comparing the convulsion scores in mice between taking the compounds or not. […] In addition, the THLE was recorded and compared with that of the mice treated by compound 4a alone. […]

SMILES: CCCN(CCC)CCCOc1ccc2c(c1)CCC(=O)N2.Cl [Compound 2b, 6-(3-(Dipropylamino)propoxy)-3,4-dihydroquinolin-2(1H)-one hydrochloride]
melting point: 57 to 59 °C
IC50 (H3R): > 50 µM

SMILES: CCCN1C(=O)CCc2cc(OCCCN3CCCCC3)ccc21 [Compound 4a, 6-(3-(Piperidin-1-yl)propoxy)-1-propyl-3,4-dihydroquinolin-2(1H)-one]
IC50 (H3R): 0.37 µM
Protection in MES model at lowest dosage [1]: no significant difference
Duration of THLE in MES model when combined with H3R agonist RAMH ([1]; 10 mg/kg i.p., co-injected with RAMH 10 mg/kg i.p.): fully vanished; also recorded: cannot decrease the duration of THLE
Duration of tonic hind limb extension (THLE), protection in MES model ([1]; 10 mg/kg, 10 mg/kg): decreased the duration of THLE significantly; also recorded: antiseizure activity
Dose dependence of protection in MES model [1]: dose-dependent manner
Death of treated animals [2]: two-thirds of mice
Neurotoxicity ([2]; 10 mg/kg): 0/3
Neurotoxicity ([2]; 30 mg/kg): 0/3
Neurotoxicity ([2]; 100 mg/kg, 100 mg/kg): no neurotoxicity and 0/3

SMILES: CCCCCN1C(=O)CCc2cc(OCCCN3CCCCC3)ccc21 [Compound 4b, 1-Pentyl-6-(3-(piperidin-1-yl)propoxy)-3,4-dihydroquinolin-2(1H)-one]
IC50 (H3R): 1.91 µM
Protection in MES model at lowest dosage [1]: no significant difference
Duration of tonic hind limb extension (THLE), protection in MES model ([1]; 10 mg/kg, 10 mg/kg): decreased the duration of THLE significantly; also recorded: antiseizure activity
Dose dependence of protection in MES model [1]: dose-dependent manner
Death of treated animals [2]: two-thirds of mice
Neurotoxicity ([2]; 10 mg/kg): 0/3
Neurotoxicity ([2]; 30 mg/kg): 0/3
Neurotoxicity ([2]; 100 mg/kg, 100 mg/kg): no neurotoxicity and 0/3

SMILES: Cc1nc(-c2ccc(OCCCN3CCCCC3)cc2)co1 [I]
Antiseizure activity in MES test when combined with RAMH [3]: completely vanished

SMILES: O=C1CCc2cc(OCCCN3CCCCC3)ccc2N1 [Compound 2h, 6-(3-(Piperidin-1-yl)propoxy)-3,4-dihydroquinolin-2(1H)-one]
IC50 (H3R): 0.12 µM
Protection in MES model at lowest dosage [1]: no significant difference
Duration of tonic hind limb extension (THLE), protection in MES model ([1]; 10 mg/kg, 10 mg/kg): decreased the duration of THLE significantly; also recorded: antiseizure activity
Dose dependence of protection in MES model [1]: dose-dependent manner
Death of treated animals [2]: all animals
Neurotoxicity ([2]; 10 mg/kg): 0/3
Neurotoxicity ([2]; 30 mg/kg): 0/3
Neurotoxicity ([2]; 100 mg/kg, 100 mg/kg): one mouse in three and 1/3

SMILES: O=C1CCc2cc(OCCCCN3CCCCC3)ccc2N1 [Compound 3b, 6-(4-(Piperidin-1-yl)butoxy)-3,4-dihydroquinolin-2(1H)-one]
melting point: 150 to 151 °C
IC50 (H3R): 2.88 µM

SMILES: CCCC(CCC)C(=O)[O-].[Na+] [VPA, valproic sodium, reference compound]
Protection against seizures induced by PTZ (seizure score) [4]: fully inhibited the seizure induced by PTZ
Duration of tonic hind limb extension (THLE), protection in MES model ([1]; 300 mg/kg): decreased the duration of THLE significantly

Now from value to compound, other results behind:

melting point: 199 to 201 °C
IC50 (H3R): 25.6 µM
SMILES: O=C1CCc2cc(OCCCN3CCN(c4ccccc4)CC3)ccc2N1 [Compound 2f, 6-(3-(4-Phenylpiperazin-1-yl)propoxy)-3,4-dihydroquinolin-2(1H)-one]

melting point: 159 to 160 °C
IC50 (H3R): 38.1 µM
SMILES: CN1CCN(CCCOc2ccc3c(c2)CCC(=O)N3)CC1 [Compound 2e, 6-(3-(4-Methylpiperazin-1-yl)propoxy)-3,4-dihydroquinolin-2(1H)-one]

melting point: 147 to 149 °C
IC50 (H3R): 7.49 µM
SMILES: O=C1CCc2cc(OCCN3CCCCC3)ccc2N1 [Compound 3a, 6-(2-(Piperidin-1-yl)ethoxy)-3,4-dihydroquinolin-2(1H)-one]

melting point: 68 to 70 °C
IC50 (H3R): 0.52 µM
SMILES: CCN(CC)CCCOc1ccc2c(c1)CCC(=O)N2 [Compound 2a, 6-(3-(Diethylamino)propoxy)-3,4-dihydroquinolin-2(1H)-one hydrochioride]
Duration of tonic hind limb extension (THLE), protection in MES model ([1]; 10 mg/kg): no significant difference

melting point: 146 to 147 °C
IC50 (H3R): 46 µM
SMILES: O=C1CCc2cc(OCCCN3CCOCC3)ccc2N1 [Compound 2g, 6-(3-(Morpholino)propoxy)-3,4-dihydroquinolin-2(1H)-one]

melting point: 174 to 176 °C
IC50 (H3R): 38.5 µM
SMILES: O=C1CCc2cc(OCCCN3CCC(c4ccccc4)CC3)ccc2N1 [Compound 2i, 6-(3-(4-Phenylpiperidin-1-yl)propoxy)-3,4-dihydroquinolin-2(1H)-one]

melting point: 120 to 122 °C
IC50 (H3R): 0.47 µM
SMILES: O=C1CCc2cc(OCCCN3CCCC3)ccc2N1 [Compound 2c, 6-(3-(Pyrrolidin-1-yl)propoxy)-3,4-dihydroquinolin-2(1H)-one hydrochioride]
Duration of tonic hind limb extension (THLE), protection in MES model ([1]; 10 mg/kg): no significant difference

melting point: 150 to 151 °C
IC50 (H3R): > 50 µM
SMILES: O=C1CCc2cc(OCCCCCN3CCCCC3)ccc2N1 [Compound 3c, 6-((5-(Piperidin-1-yl)pentyl)oxy)-3,4-dihydroquinolin-2(1H)-one]

melting point: 150 to 151 °C
IC50 (H3R): > 50 µM
SMILES: O=C1CCc2cc(OCCCN3CCNCC3)ccc2N1 [Compound 2d, 6-(3-(Piperazin-1-yl)propoxy)-3,4-dihydroquinolin-2(1H)-one]
